Test results reported in ChEMBL document CHEMBL4507312 (2021).

What was measured:
[1] = target: Histamine H4 receptor (Homo sapiens) (UniProt Q9H3N8); conditions: Compound concentration 10.0 uM
[2] = target: Muscarinic acetylcholine receptor M1 (Homo sapiens) (UniProt P11229); conditions: Compound concentration 10.0 uM
[3] = target: Alpha-2A adrenergic receptor (Homo sapiens) (UniProt P08913); conditions: Compound concentration 10.0 uM
[4] = target: Sodium-dependent noradrenaline transporter (Homo sapiens) (UniProt P23975); conditions: Compound concentration 10.0 uM
[5] = target: T1, Sigma intracellular receptor 2 (Homo sapiens, UniProt Q5BJF2); experiment: GPCRScan assay: inhibition of Sigma 2; parameters: radioligand conc. used [nm] 5.0, parental cells HEKT
[6] = target: Alpha-1B adrenergic receptor (Homo sapiens) (UniProt P35368); conditions: Compound concentration 10.0 uM
[7] = target: Histamine H1 receptor (Homo sapiens) (UniProt P35367); conditions: Compound concentration 10.0 uM
[8] = target: Beta-1 adrenergic receptor (Homo sapiens) (UniProt P08588); conditions: Compound concentration 10.0 uM
[9] = target: 5-hydroxytryptamine receptor 3A (Homo sapiens) (UniProt P46098); conditions: Compound concentration 10.0 uM
[10] = target: Delta-type opioid receptor (Homo sapiens) (UniProt P41143); conditions: Compound concentration 10.0 uM
[11] = target: 5-hydroxytryptamine receptor 2B (Homo sapiens) (UniProt P41595); conditions: Compound concentration 10.0 uM
[12] = target: Kappa-type opioid receptor (Homo sapiens) (UniProt P41145); conditions: Compound concentration 10.0 uM
[13] = target: Beta-3 adrenergic receptor (Homo sapiens) (UniProt P13945); conditions: Compound concentration 10.0 uM
[14] = target: 5-hydroxytryptamine receptor 2C (Homo sapiens) (UniProt P28335); conditions: Compound concentration 10.0 uM
[15] = target: Alpha-1A adrenergic receptor (Homo sapiens) (UniProt P35348); conditions: Compound concentration 10.0 uM
[16] = target: Alpha-1D adrenergic receptor (Homo sapiens) (UniProt P25100); conditions: Compound concentration 10.0 uM
[17] = target: Muscarinic acetylcholine receptor M4 (Homo sapiens) (UniProt P08173); conditions: Compound concentration 10.0 uM
[18] = target: 5-hydroxytryptamine receptor 2A (Homo sapiens) (UniProt P28223); conditions: Compound concentration 10.0 uM
[19] = target: 5-hydroxytryptamine receptor 1A (Homo sapiens) (UniProt P08908); conditions: Compound concentration 10.0 uM
[20] = target: D(4) dopamine receptor (Homo sapiens) (UniProt P21917); conditions: Compound concentration 10.0 uM
[21] = target: Sodium-dependent serotonin transporter (Homo sapiens) (UniProt P31645); conditions: Compound concentration 10.0 uM
[22] = target: 5-hydroxytryptamine receptor 1B (Homo sapiens) (UniProt P28222); conditions: Compound concentration 10.0 uM
[23] = target: Mu-type opioid receptor (Homo sapiens) (UniProt P35372); conditions: Compound concentration 10.0 uM
Rattus norvegicus = organism: Rattus norvegicus; conditions: Compound concentration 10.0 uM
[24] = target: Muscarinic acetylcholine receptor M5 (Homo sapiens) (UniProt P08912); conditions: Compound concentration 10.0 uM
[25] = target: Muscarinic acetylcholine receptor M3 (Homo sapiens) (UniProt P20309); conditions: Compound concentration 10.0 uM
[26] = target: Beta-2 adrenergic receptor (Homo sapiens) (UniProt P07550); conditions: Compound concentration 10.0 uM
[27] = target: Muscarinic acetylcholine receptor M2 (Homo sapiens) (UniProt P08172); conditions: Compound concentration 10.0 uM
[28] = target: Alpha-2B adrenergic receptor (Homo sapiens) (UniProt P18089); conditions: Compound concentration 10.0 uM
[29] = target: D(1B) dopamine receptor (Homo sapiens) (UniProt P21918); conditions: Compound concentration 10.0 uM
[30] = target: 5-hydroxytryptamine receptor 6 (Homo sapiens) (UniProt P50406); conditions: Compound concentration 10.0 uM
[31] = target: T1, Sigma intracellular receptor 2; conditions: Compound concentration 10.0 uM
[32] = target: 5-hydroxytryptamine receptor 7 (Homo sapiens) (UniProt P34969); conditions: Compound concentration 10.0 uM
[33] = target: 5-hydroxytryptamine receptor 5A (Homo sapiens) (UniProt P47898); conditions: Compound concentration 10.0 uM
[34] = target: Alpha-2C adrenergic receptor (Homo sapiens) (UniProt P18825); conditions: Compound concentration 10.0 uM
[35] = target: Sodium-dependent dopamine transporter (Homo sapiens) (UniProt Q01959); conditions: Compound concentration 10.0 uM

T1 sequence (Q5BJF2 whole entry): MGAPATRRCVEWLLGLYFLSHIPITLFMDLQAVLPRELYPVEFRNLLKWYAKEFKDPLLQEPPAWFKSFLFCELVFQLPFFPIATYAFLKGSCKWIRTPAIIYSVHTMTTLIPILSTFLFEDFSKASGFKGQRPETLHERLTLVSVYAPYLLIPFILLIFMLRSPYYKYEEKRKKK
Chain of Alpha-2B adrenergic receptor (Homo sapiens) (P18089 whole entry): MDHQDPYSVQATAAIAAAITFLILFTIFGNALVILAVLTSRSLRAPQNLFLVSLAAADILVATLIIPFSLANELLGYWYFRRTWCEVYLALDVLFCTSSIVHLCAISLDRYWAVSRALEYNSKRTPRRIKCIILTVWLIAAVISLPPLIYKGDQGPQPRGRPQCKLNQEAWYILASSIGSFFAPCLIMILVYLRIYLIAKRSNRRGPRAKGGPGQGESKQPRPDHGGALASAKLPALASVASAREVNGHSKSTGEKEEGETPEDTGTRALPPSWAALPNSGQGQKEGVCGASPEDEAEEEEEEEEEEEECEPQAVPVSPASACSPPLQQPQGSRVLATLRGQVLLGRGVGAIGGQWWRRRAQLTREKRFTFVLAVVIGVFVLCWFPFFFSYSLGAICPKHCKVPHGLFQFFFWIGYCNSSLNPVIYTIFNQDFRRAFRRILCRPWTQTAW
Chain of D(4) dopamine receptor (Homo sapiens) (P21917 whole entry): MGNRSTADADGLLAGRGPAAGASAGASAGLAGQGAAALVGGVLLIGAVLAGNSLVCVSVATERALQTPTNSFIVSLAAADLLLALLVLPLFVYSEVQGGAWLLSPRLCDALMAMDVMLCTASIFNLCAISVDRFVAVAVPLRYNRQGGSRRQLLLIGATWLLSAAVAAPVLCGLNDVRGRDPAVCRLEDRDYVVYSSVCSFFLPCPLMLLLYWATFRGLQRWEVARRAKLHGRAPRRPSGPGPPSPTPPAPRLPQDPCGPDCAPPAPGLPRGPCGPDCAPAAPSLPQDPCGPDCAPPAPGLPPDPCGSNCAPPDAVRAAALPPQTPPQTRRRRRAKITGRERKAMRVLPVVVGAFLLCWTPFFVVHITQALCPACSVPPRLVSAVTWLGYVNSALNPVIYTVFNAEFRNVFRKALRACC
Chain of 5-hydroxytryptamine receptor 1A (Homo sapiens) (P08908 whole entry): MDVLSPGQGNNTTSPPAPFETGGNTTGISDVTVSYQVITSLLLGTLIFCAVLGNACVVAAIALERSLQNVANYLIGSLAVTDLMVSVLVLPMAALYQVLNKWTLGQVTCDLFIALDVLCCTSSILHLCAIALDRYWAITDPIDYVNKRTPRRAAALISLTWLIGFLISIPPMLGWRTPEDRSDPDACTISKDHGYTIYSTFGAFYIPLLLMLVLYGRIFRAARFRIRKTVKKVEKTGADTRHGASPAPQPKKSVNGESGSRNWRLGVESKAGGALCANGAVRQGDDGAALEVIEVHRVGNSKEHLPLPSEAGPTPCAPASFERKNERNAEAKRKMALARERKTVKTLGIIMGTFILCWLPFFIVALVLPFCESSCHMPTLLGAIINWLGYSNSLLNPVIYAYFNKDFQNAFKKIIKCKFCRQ
Chain of Alpha-2A adrenergic receptor (Homo sapiens) (P08913 whole entry): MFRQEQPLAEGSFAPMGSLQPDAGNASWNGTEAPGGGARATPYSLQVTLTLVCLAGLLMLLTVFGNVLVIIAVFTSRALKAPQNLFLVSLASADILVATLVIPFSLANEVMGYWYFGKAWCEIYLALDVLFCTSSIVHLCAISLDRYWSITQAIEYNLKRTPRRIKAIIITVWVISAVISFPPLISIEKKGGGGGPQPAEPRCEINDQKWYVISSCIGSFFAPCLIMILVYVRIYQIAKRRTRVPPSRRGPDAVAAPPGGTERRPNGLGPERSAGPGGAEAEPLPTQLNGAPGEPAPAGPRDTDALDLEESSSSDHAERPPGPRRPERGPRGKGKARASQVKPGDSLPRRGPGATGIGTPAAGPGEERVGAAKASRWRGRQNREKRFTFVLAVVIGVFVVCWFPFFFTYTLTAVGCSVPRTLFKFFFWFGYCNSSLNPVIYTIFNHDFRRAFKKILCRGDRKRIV
Chain of Beta-2 adrenergic receptor (Homo sapiens) (P07550 whole entry, looked up): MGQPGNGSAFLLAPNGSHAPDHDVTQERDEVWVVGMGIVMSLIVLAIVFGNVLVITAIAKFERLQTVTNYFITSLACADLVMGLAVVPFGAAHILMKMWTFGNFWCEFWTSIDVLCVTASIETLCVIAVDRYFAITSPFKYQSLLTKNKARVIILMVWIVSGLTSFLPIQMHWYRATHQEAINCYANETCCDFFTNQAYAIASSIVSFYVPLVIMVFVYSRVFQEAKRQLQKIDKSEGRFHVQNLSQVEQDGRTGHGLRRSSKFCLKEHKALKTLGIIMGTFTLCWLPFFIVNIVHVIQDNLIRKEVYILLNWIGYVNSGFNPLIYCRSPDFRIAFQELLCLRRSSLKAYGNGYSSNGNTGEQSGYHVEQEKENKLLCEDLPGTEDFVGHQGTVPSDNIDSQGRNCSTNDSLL
Chain of Muscarinic acetylcholine receptor M5 (Homo sapiens) (P08912 whole entry): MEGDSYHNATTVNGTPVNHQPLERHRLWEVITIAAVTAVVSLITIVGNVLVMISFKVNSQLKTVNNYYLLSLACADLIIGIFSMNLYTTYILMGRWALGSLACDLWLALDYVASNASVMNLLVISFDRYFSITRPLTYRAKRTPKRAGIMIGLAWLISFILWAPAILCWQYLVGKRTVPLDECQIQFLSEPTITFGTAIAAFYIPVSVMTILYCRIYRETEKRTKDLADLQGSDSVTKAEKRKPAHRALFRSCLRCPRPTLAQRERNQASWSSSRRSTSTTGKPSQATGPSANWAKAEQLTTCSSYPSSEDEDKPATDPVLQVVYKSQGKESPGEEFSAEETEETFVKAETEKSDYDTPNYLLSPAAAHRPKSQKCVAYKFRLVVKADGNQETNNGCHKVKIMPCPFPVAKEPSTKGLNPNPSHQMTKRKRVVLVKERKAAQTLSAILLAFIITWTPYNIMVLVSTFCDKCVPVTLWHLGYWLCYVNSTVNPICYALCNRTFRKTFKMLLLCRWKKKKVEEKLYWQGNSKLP
Chain of Muscarinic acetylcholine receptor M1 (Homo sapiens) (P11229 whole entry): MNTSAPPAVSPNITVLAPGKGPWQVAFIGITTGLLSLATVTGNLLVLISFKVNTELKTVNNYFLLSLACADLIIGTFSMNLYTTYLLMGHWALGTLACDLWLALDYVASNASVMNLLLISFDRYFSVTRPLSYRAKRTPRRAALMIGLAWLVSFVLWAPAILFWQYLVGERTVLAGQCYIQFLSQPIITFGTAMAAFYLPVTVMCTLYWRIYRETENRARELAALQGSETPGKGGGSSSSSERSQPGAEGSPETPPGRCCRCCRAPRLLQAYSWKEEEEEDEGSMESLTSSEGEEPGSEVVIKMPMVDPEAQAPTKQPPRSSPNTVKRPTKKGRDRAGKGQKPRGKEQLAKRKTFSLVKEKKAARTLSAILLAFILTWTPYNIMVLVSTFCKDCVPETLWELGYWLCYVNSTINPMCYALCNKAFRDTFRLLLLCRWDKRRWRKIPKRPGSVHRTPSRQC
Chain of 5-hydroxytryptamine receptor 1B (Homo sapiens) (P28222 whole entry): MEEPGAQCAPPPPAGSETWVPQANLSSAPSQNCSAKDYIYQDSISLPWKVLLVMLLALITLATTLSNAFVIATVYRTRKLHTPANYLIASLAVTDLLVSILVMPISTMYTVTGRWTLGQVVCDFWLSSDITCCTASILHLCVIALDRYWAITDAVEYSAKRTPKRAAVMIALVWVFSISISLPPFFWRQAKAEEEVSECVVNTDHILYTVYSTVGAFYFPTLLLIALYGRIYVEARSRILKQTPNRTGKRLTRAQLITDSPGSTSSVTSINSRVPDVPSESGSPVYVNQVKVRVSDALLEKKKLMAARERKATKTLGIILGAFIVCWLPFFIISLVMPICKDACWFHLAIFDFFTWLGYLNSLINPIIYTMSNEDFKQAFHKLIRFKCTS
Chain of Kappa-type opioid receptor (Homo sapiens) (P41145 whole entry): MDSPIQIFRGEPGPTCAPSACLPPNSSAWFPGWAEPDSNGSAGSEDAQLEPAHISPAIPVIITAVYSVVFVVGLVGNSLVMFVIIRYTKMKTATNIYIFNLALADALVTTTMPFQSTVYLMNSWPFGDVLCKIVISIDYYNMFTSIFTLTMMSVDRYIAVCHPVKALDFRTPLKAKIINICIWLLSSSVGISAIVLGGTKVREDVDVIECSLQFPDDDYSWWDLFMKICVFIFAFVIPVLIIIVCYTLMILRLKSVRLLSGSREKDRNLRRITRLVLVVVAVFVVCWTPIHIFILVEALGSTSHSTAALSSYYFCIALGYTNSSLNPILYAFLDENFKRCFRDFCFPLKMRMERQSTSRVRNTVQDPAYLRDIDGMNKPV
Chain of Mu-type opioid receptor (Homo sapiens) (P35372 whole entry): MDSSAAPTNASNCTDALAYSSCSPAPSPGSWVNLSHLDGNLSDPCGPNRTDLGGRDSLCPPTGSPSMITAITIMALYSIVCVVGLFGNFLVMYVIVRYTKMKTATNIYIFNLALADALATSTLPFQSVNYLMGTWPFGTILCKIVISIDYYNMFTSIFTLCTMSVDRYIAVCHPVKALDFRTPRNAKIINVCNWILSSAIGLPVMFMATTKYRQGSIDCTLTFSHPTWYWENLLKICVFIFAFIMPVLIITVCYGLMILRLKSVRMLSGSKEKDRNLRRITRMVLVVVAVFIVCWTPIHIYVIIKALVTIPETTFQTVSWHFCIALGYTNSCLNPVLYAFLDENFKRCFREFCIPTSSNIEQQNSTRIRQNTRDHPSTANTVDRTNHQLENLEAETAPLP
Chain of Delta-type opioid receptor (Homo sapiens) (P41143 whole entry): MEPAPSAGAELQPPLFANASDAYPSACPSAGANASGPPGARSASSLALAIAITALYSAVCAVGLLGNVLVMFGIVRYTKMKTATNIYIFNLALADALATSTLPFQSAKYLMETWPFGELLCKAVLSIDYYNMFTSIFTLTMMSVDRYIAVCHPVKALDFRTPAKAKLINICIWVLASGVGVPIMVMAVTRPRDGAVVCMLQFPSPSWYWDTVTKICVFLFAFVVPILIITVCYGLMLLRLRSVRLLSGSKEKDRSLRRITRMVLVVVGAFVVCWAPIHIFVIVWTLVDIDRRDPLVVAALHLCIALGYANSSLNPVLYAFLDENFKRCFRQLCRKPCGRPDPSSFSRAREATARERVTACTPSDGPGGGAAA

Structure (SMILES): Cc1c(Oc2ccc(F)cc2)c(OC(C)C)nn1-c1ccc(C2CC2)cn1 [IPP/CNRS-A019]
- inhibition [1]: -0.91%
- inhibition [2]: 5.35%
- inhibition [3]: 7.06%
- inhibition [4]: 0.15%
- Ki ([5]; read-out: Ki): 5.25 µM
- Ki ([5]; read-out: pKi (converted)): 4.47 µM
- inhibition [6]: -4.23%
- inhibition [7]: 21.2%
- inhibition [8]: 23.9%
- inhibition [9]: 11.7%
- inhibition [10]: 1.01%
- inhibition [11]: 22.8%
- inhibition [12]: -0.09%
- inhibition [13]: 17.6%
- inhibition [14]: -1.77%
- inhibition [15]: -2.65%
- inhibition [16]: -0.81%
- inhibition [17]: 10.3%
- inhibition [18]: -7.39%
- inhibition [19]: 0.45%
- inhibition [20]: -4.56%
- inhibition [21]: -0.39%
- inhibition [22]: -6.09%
- inhibition [23]: -1.35%
- inhibition (Rattus norvegicus): -2.86%
- inhibition [24]: 4.72%
- inhibition [25]: -6.6%
- inhibition [26]: 17%
- inhibition [27]: 16.2%
- inhibition [28]: 13.3%
- inhibition [29]: -2.37%
- inhibition [30]: 9.36%
- inhibition [31]: 64.9%
- inhibition [32]: 15.8%
- inhibition [33]: -6.43%
- inhibition [34]: 8.56%
- inhibition [35]: -6.74%
